Patent US9963462B2 (priority 2015, dated 2018)

Legend:
[1] = molecular target: SNAP-hSPR (sepiapterin reductase, SPR) (Homo sapiens, UniProt P35270); test: biochemical; format: binding; conditions: terbium labelled SNAP-hSPR / SSZ labelled SNAP-EGFP; read-out: hTR-FRET IC50
[2] = system: BH4 levels in SK-N-BE (2) cells; test: SKN-N-BE (2) cellular assay, BH4 levels by LC-MS; format: cell-based; conditions: Homo sapiens, SKNBE2, read-out: SK-N-BE(2) IC50, SK-N-BE (2) cells, BH4 levels by LC-MS

Chain of SNAP-hSPR (sepiapterin reductase, SPR) (P35270 whole entry): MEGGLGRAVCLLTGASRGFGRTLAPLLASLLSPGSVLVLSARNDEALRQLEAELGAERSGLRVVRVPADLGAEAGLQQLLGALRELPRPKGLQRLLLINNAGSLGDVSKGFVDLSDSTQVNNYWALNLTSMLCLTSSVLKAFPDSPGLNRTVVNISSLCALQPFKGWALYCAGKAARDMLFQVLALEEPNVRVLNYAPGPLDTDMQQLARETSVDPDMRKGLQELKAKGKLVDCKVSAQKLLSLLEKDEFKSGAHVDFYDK

SMILES	IC50 [1] [nM]	IC50 [2] [nM]
O=C(c1ccnc(-c2nc3c(c(=O)[nH]2)CCC3)c1)N1CCC(C(F)(F)F)CC1 [Q-0508]	30	2000
Cc1c(C(=O)N2CCC(C(F)(F)F)CC2)cnn1-c1nc2c(ccn2C)c(=O)[nH]1 [Q-0426]	100	16000
Cc1c(C(=O)N2CCC3(CC2)OCCO3)cnn1-c1nn2cccc2c(=O)[nH]1 [Q-0795]	2	500
Cc1cc(=O)[nH]c(-n2ncc(C(=O)N3CCC(C(F)(F)F)CC3)c2C)n1 [Q-0359]	3	1100
Cc1c(C(=O)N2C3CCC2CN(c2ccc(C(F)(F)F)cn2)C3)cnn1-c1nn2cccc2c(=O)[nH]1 [Q-0854]	3	200
Cc1c(C(=O)N2C3CCC2CN(C(=O)OC(C)(C)C)C3)cnn1-c1nn2cccc2c(=O)[nH]1 [Q-0739]	2	300
Cc1c(C(=O)N2CCN(C)c3ccccc32)cnn1-c1nn2cccc2c(=O)[nH]1 [Q-0759]	1	200
Cc1c(C(=O)N2CC3CC2C3)cnn1-c1nn2cccc2c(=O)[nH]1 [Q-0791]	2	600
Cc1ccc(C2(C)CN(C(=O)c3cnn(-c4nc5c(c(=O)[nH]4)CCC5)c3C)CCO2)cc1 (stereo not drawn) [Q-0501]	9	200
Cc1c(C(=O)N2CCN(c3ccc(Cl)cc3)CC2)cnn1-c1nn2cccc2c(=O)[nH]1 [Q-0827]	2	65
COC1(C)CCN(C(=O)c2cnn(-c3nc4c(c(=O)[nH]3)CCC4)c2C)CC1 [Q-0520]	3	200
Cc1c(C(=O)N2CCN(c3cnccn3)CC2)cnn1-c1nn2cccc2c(=O)[nH]1 [Q-0831]	2	400
Cc1c(C(=O)N2CC[C@H]3CCCC[C@@H]3C2)cnn1-c1nc2ccsc2c(=O)[nH]1 [Q-0408]	10	75
Cc1c(C(=O)N2CCC(c3nc4ccccc4s3)CC2)cnn1-c1nc2c(c(=O)[nH]1)CCC2 [Q-0499]	20	44
Cc1c(C(=O)N2CCC(S(=O)(=O)c3ccccc3)CC2)cnn1-c1nc2c(c(=O)[nH]1)CCC2 [Q-0504]	4	58
Cc1cc(-n2cc(C(=O)N3CCC(C(F)(F)F)CC3)c(C)n2)[nH]c(=O)c1 [Q-0440, 4-methyl-6-{3-methyl-4-[4-(trifluoromethyL)piperidine-1-carbonyl]-1H-pyrazol-1-yl}-1,2-dihydropyridin-2-one]	9	1400
O=C(c1cnn(-c2nc3ccsc3c(=O)[nH]2)c1)N1CCC(C2CC2)CC1 [Q-0711]	2	86
Cc1c(C(=O)N2CCC(c3cccc4[nH]ccc34)CC2)cnn1-c1nc2c(c(=O)[nH]1)CCC2 [Q-0615]	3	19
Cc1cc(=O)[nH]c(-n2cc(C(=O)N3CCC(C(F)(F)F)CC3)cn2)n1 [Q-0443]	9	3900
Cc1c(C(=O)N2CC3CN(C(=O)OC(C)(C)C)CC3C2)cnn1-c1nn2cccc2c(=O)[nH]1 (stereo not drawn) [Q-0809]	6	900
Cc1c(C(=O)N2CCC(CC(F)(F)F)CC2)cnn1-c1nn2cc(F)cc2c(=O)[nH]1 [Q-0747]	8	800

SMILES	IC50 [1] [nM]	IC50 [2] [nM]
Cc1cc(=O)[nH]c(-n2ncc(C(=O)N(C)Cc3ccccc3)c2C)n1 [Q-0318]	6	2100
O=C(c1cnn(-c2nn3cccc3c(=O)[nH]2)c1)N1CCC2(CC1)CC2 [Q-0708]	1	97
O=C(c1cnc(-c2nc3ccsc3c(=O)[nH]2)s1)N1CCC(C(F)(F)F)CC1 [Q-0530]	30	1800
Cc1c(C(=O)N2CC(N3CCC(F)(F)CC3)C2)cnn1-c1nn2cccc2c(=O)[nH]1 [Q-0818]	2	900
Cc1c(C(=O)N2CCC(C#N)(c3ccccc3)CC2)cnn1-c1nc2ccsc2c(=O)[nH]1 [Q-0550]	2	100
O=C(c1ccc(-c2nc3c(c(=O)[nH]2)CCC3)nc1)N1CCC(C(F)(F)F)CC1 [Q-0472, 2-{5-[4-(trifluoromethyl)piperidine-1-carbonyl]pyridin-2-yl}-3H,4H,5H,6H,7H-cyclopenta[d]pyrimidin-4-one]	200	17000
Cc1c(C(=O)N2CCc3ccccc3C2)cnn1-c1ncc(Cl)c(=O)[nH]1 [Q-0387]	10	3700
Cc1c(C(=O)N2CCN(c3ccccc3Cl)CC2)cnn1-c1nc2c(c(=O)[nH]1)CCC2 [Q-0570]	3	23
Cc1c(C(=O)N2CC(c3ccc(F)c(F)c3)C2)cnn1-c1nc2c(c(=O)[nH]1)CCC2 [Q-0749]	3	50
COc1ccc2c(c1)CN(C(=O)c1cnn(-c3nc(C)cc(=O)[nH]3)c1C)CC2 [Q-0307]	9	4200
Cc1c(C(=O)N2CCC(C(F)(F)F)CC2)cnn1-c1nc2[nH]ncc2c(=O)[nH]1 [Q-0438]	100	35000
Cc1c(C(=O)N2CCN(c3ccc(F)cc3F)CC2)cnn1-c1nc2c(c(=O)[nH]1)CCC2 [Q-0567]	3	20
Cc1c(C(=O)N2CCC(O)(c3ccccc3)CC2C)cnn1-c1nc2c(c(=O)[nH]1)CCC2 (stereo not drawn) [Q-0483]	4	49
Cc1c(C(=O)N2CC(O)(C3CC3)C2)cnn1-c1nn2cccc2c(=O)[nH]1 [Q-0814]	2	400
O=C(c1cnn(-c2nc3c(c(=O)[nH]2)CCC3)c1)N1CCC(c2c[nH]c3ccccc23)CC1 [Q-0702]	2	32
Cc1cc(=O)[nH]c(-n2ncc(C(=O)NC3CCCc4ccccc43)c2C)n1 (stereo not drawn) [Q-0362]	20	2900
CC(C)(C#N)C1CCN(C(=O)c2cnn(-c3nc4c(c(=O)[nH]3)CCC4)c2)CC1 [Q-0710]	2	200
O=C(c1cnn(-c2nn3cccc3c(=O)[nH]2)c1)N1CCC(C2CC2)CC1 [Q-0709]	1	28
Cc1c(C(=O)N2CC(CNC(=O)OC(C)(C)C)C2)cnn1-c1nc2ccsc2c(=O)[nH]1 [Q-0582]	20	1000
Cc1c(C(=O)N2CCN(c3ccccn3)CC2)cnn1-c1nn2cccc2c(=O)[nH]1 [Q-0843]	1	200
Cc1c(C(=O)N2CCN(c3ccc(C(F)(F)F)cc3)CC2)cnn1-c1nn2cccc2c(=O)[nH]1 [Q-0833]	6	200

SMILES	IC50 [1] [nM]	IC50 [2] [nM]
Cc1c(C(=O)N2CCN(C(=O)C34CC(C(N)=O)(C3)C4)CC2)cnn1-c1nc2c(c(=O)[nH]1)CCC2 [Q-0630]	9	10000
O=C(c1cnn(-c2nc3c(c(=O)[nH]2)CCC3)c1)N1CCC(c2nc3ccc(F)cc3s2)CC1 [Q-0718]	4	200
Cc1cc(=O)[nH]c(-n2ncc(C(=O)NC3CCCC3)c2C)n1 [Q-0280]	60	16000
Cc1cc(=O)[nH]c(-n2ccc(C(=O)N3CCc4ccccc4C3)n2)n1 [Q-0308, 6-methyl-2-[3-(1,2,3,4-tetrahydroisoquinoline-2-carbonyl)-1H-pyrazol-1-yl]-3,4-dihydropyrimidin-4-one]	20	2000
O=C(c1cnn(-c2nn3cc(F)cc3c(=O)[nH]2)c1)N1CCC(CC(F)(F)F)CC1 [Q-0741]	4	400
Cc1c(C(=O)N2CCC(C(F)(F)F)CC2)ccn1-c1nc2c(c(=O)[nH]1)CCC2 [Q-0622, 2-(2-methyl-3-(4-(trifluoromethyl)piperidine-1-carbonyl)-1H-pyrrol-1-yl)-6,7-dihydro-3H-cyclopenta[d]pyrimidin-4(5H)-one]	1	58
Cc1c(C(=O)N2CC3CC3(O)C2)cnn1-c1nc2sccc2c(=O)[nH]1 (stereo not drawn) [Q-0617]	20	3000
Cc1c(C(=O)N2CCC(c3nc4ccccc4s3)CC2)cnn1-c1nc2sccc2c(=O)[nH]1 [Q-0574]	6	47
N#CC1(c2ccccc2)CCN(C(=O)c2cnn(-c3nc4c(c(=O)[nH]3)CCC4)c2)CC1 [Q-0726]	1	74
Cc1c(C(=O)N2CCC(C(C)(C)C#N)CC2)cnn1-c1nc2ccsc2c(=O)[nH]1 [Q-0531]	4	62
Cc1c(C(=O)N2C3CCC2CN(C(=O)OC(C)(C)C)C3)cnn1-c1nc2c(c(=O)[nH]1)CCC2 [Q-0745]	4	200
Cc1c(C(=O)N2CCC(c3ccccc3)CC2)cnn1-c1nc2[nH]ccc2c(=O)[nH]1 [Q-0488]	20	1200
Cc1c(C(=O)N2CCN(c3ccccc3)CC2)cnn1-c1nn2cccc2c(=O)[nH]1 [Q-0802]	1	67
Cc1c(C(=O)N2CCC(C(F)(F)F)CC2)cnn1-c1nn2c(F)ccc2c(=O)[nH]1 [Q-0606]	2	51
Cc1c(C(=O)N2CCC(CC(F)(F)F)CC2)cnn1-c1nc2ccsc2c(=O)[nH]1 [Q-0704]	2	200
Cc1cc(=O)[nH]c(-n2ncc(C(=O)NCc3cnccn3)c2C)n1 [Q-0344]	70	23000
Cc1c(C(=O)N2CC(CN)C2)cnn1-c1nc2ccsc2c(=O)[nH]1 [Q-0583]	100	3700
Cc1c(C(=O)N(C)Cc2ccc3ncccc3c2)cnn1-c1nc2c(c(=O)[nH]1)CCC2 [Q-0506]	3	200
Cc1c(C(=O)N2CCN(C)c3ccccc32)cnn1-c1nc2c(c(=O)[nH]1)CCC2 [Q-0731]	2	53
Cc1c(C(=O)N2CCC(C3CC3)CC2)cnn1-c1nn2cccc2c(=O)[nH]1 [Q-0727]	1	81
CCN(CC)C(=O)c1cnn(-c2nc(C)cc(=O)[nH]2)c1C [Q-0348]	10	6400
